System: children undergoing tonsillectomy
Assay: Postoperative analgesia measurements by ABCB1 genotype (Example 7)
Settings: for Maximum FLACC: median (IQR); for Post-Operative morphine: patients with at least one post-operative intervention
[1] = Blacks, ABCB1 Rs1128503 CC, N=24
[2] = Blacks, ABCB1 Rs1128503 TC, N=18
[3] = Blacks, ABCB1 Rs1128503 TT, N=2
[4] = Blacks, ABCB1 Rs2032582 GA, N=1
[5] = Blacks, ABCB1 Rs2032582 GG, N=35
[6] = Blacks, ABCB1 Rs2032582 GT, N=8
[7] = Blacks, ABCB1 Rs2229109 CA, N=1
[8] = Blacks, ABCB1 Rs2229109 CC, N=43
[9] = Blacks, ABCB1 Rs9282564 AA, N=41
[10] = Blacks, ABCB1 Rs9282564 GA, N=3
[11] = Blacks, ABCB1 rs10456542 CC, N=27
[12] = Blacks, ABCB1 rs10456542 TC, N=14
[13] = Blacks, ABCB1 rs10456542 TT, N=3
[14] = Whites, ABCB1 Rs1128503 CC, N=70
[15] = Whites, ABCB1 Rs1128503 TC, N=102
[16] = Whites, ABCB1 Rs1128503 TT, N=47
[17] = Whites, ABCB1 Rs2032582 GA, N=7
[18] = Whites, ABCB1 Rs2032582 GG, N=65
[19] = Whites, ABCB1 Rs2032582 GT, N=100
[20] = Whites, ABCB1 Rs2032582 TA, N=1
[21] = Whites, ABCB1 Rs2032582 TT, N=46
[22] = Whites, ABCB1 Rs2229109 CA, N=14
[23] = Whites, ABCB1 Rs2229109 CC, N=205
[24] = Whites, ABCB1 Rs9282564 AA, N=171
[25] = Whites, ABCB1 Rs9282564 GA, N=46
[26] = Whites, ABCB1 Rs9282564 GG, N=2
[27] = Whites, ABCB1 rs10456542 CC, N=49
[28] = Whites, ABCB1 rs10456542 TC, N=100
[29] = Whites, ABCB1 rs10456542 TT, N=70

Procedure: All participants received standard perioperative care. Anesthesia was induced using sevoflurane followed by a propofol (2 mg/kg) bolus to facilitate endotracheal intubation. Anesthesia was maintained with sevoflurane without the use of neuromuscular blockade. […] All children receive prophylactic ondansetron (0.1 mg/kg) and dexamethasone (0.1 mg/kg) intraoperatively.
Blood was collected from each participant in the operating room under anesthesia and the DNA was isolated the same day and stored at −20 degree Celsius. Batched genotyping was performed after clinical data was entered on all study participants. The TaqMan allelic discrimination system assays and Genotyper Softerware Version 1.0.1 (Life Technologies, Applied Biosystems, Forest City, Calif.) were used to analyse and report the following ABCB1 polymorphisms: rs1045642, rs2032582, rs1128503, rs2229109, and rs9282564.
Prior to analysis, data qualities were examined. For the ABCB1 variants, allelic and genotype frequencies were assessed in white and black patients separately, and Hardy Weinberg equilibrium (HWE) was tested. To analyze binary outcomes (RD, prolonged PACU secondary to RD and analgesic intervention need), logistic regression was performed. […] Thus, maximum FLACC scores were analyzed using a zero-inflated negative binomial model to appropriately capture the distribution of this variable. […] To select the best fitting model, log likelihood, Akaike and Bayesian Information criterion were compared, and residuals were examined. […] To assess the single SNP association with the outcomes, additive models were used, in which the genotypes were recoded and tested as continuous variables. For the four bi-allelic SNPs, genotypes were recoded to 0, 1 and 2 according to the number of minor alleles. For rs2032582, GG genotype was recoded as 0; GA and GT genotypes were combined and recoded as 1, and TT and TA genotypes as 2. Statistical modeling was conducted with white and black patients separately and combined. When races were combined, the effects of race and race*SNP interaction were tested.

Question: What does the source list for CN1CC[C@]23c4c5ccc(O)c4O[C@H]2[C@@H](O)C=C[C@H]3[C@H]1C5 [morphine]?
Answer: median of maximum FLACC scores (263 patients): 3; patients who needed analgesic intervention(s) (263 patients): 62%; Analges. % (analgesic interventions %) [1]: 88%; Maximum FLACC [1]: 5 (4-8); Post-Operative morphine (Blacks, ABCB1 Rs1128503 CC, N=24, mean ± SD): 0.12 ± 0.08 mg/kg; Analges. % (analgesic interventions %) [2]: 89%; Maximum FLACC [2]: 6 (3-9); Post-Operative morphine (Blacks, ABCB1 Rs1128503 TC, N=18, mean ± SD): 0.13 ± 0.05 mg/kg; Analges. % (analgesic interventions %) [3]: 100%; Maximum FLACC [3]: 4 (0-8); Post-Operative morphine (Blacks, ABCB1 Rs1128503 TT, N=2, mean ± SD): 0.08 ± 0.03 mg/kg; Analges. % (analgesic interventions %) [4]: 100%; Maximum FLACC [4]: 4 (4-4); Post-Operative morphine [4]: 0.08 mg/kg; Analges. % (analgesic interventions %) [5]: 91%; Maximum FLACC [5]: 5 (3-8); Post-Operative morphine (Blacks, ABCB1 Rs2032582 GG, N=35, mean ± SD): 0.12 ± 0.07 mg/kg; Analges. % (analgesic interventions %) [6]: 75%; Maximum FLACC [6]: 8 (2-9); Post-Operative morphine (Blacks, ABCB1 Rs2032582 GT, N=8, mean ± SD): 0.11 ± 0.04 mg/kg; Analges. % (analgesic interventions %) [7]: 100%; Maximum FLACC [7]: 8 (8-8); Post-Operative morphine [7]: 0.04 mg/kg; Analges. % (analgesic interventions %) [8]: 88%; Maximum FLACC [8]: 5 (3-8); Post-Operative morphine (Blacks, ABCB1 Rs2229109 CC, N=43, mean ± SD): 0.12 ± 0.06 mg/kg; Analges. % (analgesic interventions %) [9]: 88%; Maximum FLACC [9]: 5 (3-8); Post-Operative morphine (Blacks, ABCB1 Rs9282564 AA, N=41, mean ± SD): 0.12 ± 0.07 mg/kg; Analges. % (analgesic interventions %) [10]: 100%; Maximum FLACC [10]: 8 (8-10); Post-Operative morphine (Blacks, ABCB1 Rs9282564 GA, N=3, mean ± SD): 0.10 ± 0.00 mg/kg; Analges. % (analgesic interventions %) [11]: 89%; Maximum FLACC [11]: 5 (4-8); Post-Operative morphine (Blacks, ABCB1 rs10456542 CC, N=27, mean ± SD): 0.12 ± 0.07 mg/kg; Analges. % (analgesic interventions %) [12]: 86%; Maximum FLACC [12]: 7 (1-8); Post-Operative morphine (Blacks, ABCB1 rs10456542 TC, N=14, mean ± SD): 0.12 ± 0.05 mg/kg; Analges. % (analgesic interventions %) [13]: 100%; Maximum FLACC [13]: 8 (3-8); Post-Operative morphine (Blacks, ABCB1 rs10456542 TT, N=3, mean ± SD): 0.12 ± 0.11 mg/kg; Analges. % (analgesic interventions %) [14]: 57%; Maximum FLACC [14]: 3 (0-5); Post-Operative morphine (Whites, ABCB1 Rs1128503 CC, N=70, mean ± SD): 0.09 ± 0.04 mg/kg; Analges. % (analgesic interventions %) [15]: 57%; Maximum FLACC [15]: 2 (0-5); Post-Operative morphine (Whites, ABCB1 Rs1128503 TC, N=102, mean ± SD): 0.10 ± 0.05 mg/kg; Analges. % (analgesic interventions %) [16]: 53%; Maximum FLACC [16]: 1 (0-5); Post-Operative morphine (Whites, ABCB1 Rs1128503 TT, N=47, mean ± SD): 0.08 ± 0.04 mg/kg; Analges. % (analgesic interventions %) [17]: 43%; Maximum FLACC [17]: 2 (1-5); Post-Operative morphine (Whites, ABCB1 Rs2032582 GA, N=7, mean ± SD): 0.09 ± 0.05 mg/kg; Analges. % (analgesic interventions %) [18]: 58%; Maximum FLACC [18]: 4 (0-6); Post-Operative morphine (Whites, ABCB1 Rs2032582 GG, N=65, mean ± SD): 0.09 ± 0.04 mg/kg; Analges. % (analgesic interventions %) [19]: 57%; Maximum FLACC [19]: 2 (0-5); Post-Operative morphine (Whites, ABCB1 Rs2032582 GT, N=100, mean ± SD): 0.09 ± 0.05 mg/kg; Analges. % (analgesic interventions %) [20]: 100%; Maximum FLACC [20]: 8 (8-8); Post-Operative morphine [20]: 0.21 mg/kg; Analges. % (analgesic interventions %) [21]: 52%; Maximum FLACC [21]: 1 (1-5); Post-Operative morphine (Whites, ABCB1 Rs2032582 TT, N=46, mean ± SD): 0.09 ± 0.04 mg/kg; Analges. % (analgesic interventions %) [22]: 50%; Maximum FLACC [22]: 2 (1-4); Post-Operative morphine (Whites, ABCB1 Rs2229109 CA, N=14, mean ± SD): 0.06 ± 0.02 mg/kg; Analges. % (analgesic interventions %) [23]: 57%; Maximum FLACC [23]: 2 (0-5); Post-Operative morphine (Whites, ABCB1 Rs2229109 CC, N=205, mean ± SD): 0.09 ± 0.05 mg/kg; Analges. % (analgesic interventions %) [24]: 56%; Maximum FLACC [24]: 2 (0-5); Post-Operative morphine (Whites, ABCB1 Rs9282564 AA, N=171, mean ± SD): 0.09 ± 0.04 mg/kg; Analges. % (analgesic interventions %) [25]: 54%; Maximum FLACC [25]: 2 (0-4); Post-Operative morphine (Whites, ABCB1 Rs9282564 GA, N=46, mean ± SD): 0.09 ± .05 mg/kg; Analges. % (analgesic interventions %) [26]: 100%; Maximum FLACC [26]: 7 (6-7); Post-Operative morphine (Whites, ABCB1 Rs9282564 GG, N=2, mean ± SD): 0.16 ± 0.07 mg/kg; Analges. % (analgesic interventions %) [27]: 63%; Maximum FLACC [27]: 4 (0-6); Post-Operative morphine (Whites, ABCB1 rs10456542 CC, N=49, mean ± SD): 0.09 ± 0.03 mg/kg; Analges. % (analgesic interventions %) [28]: 52%; Maximum FLACC [28]: 2 (0-4); Post-Operative morphine (Whites, ABCB1 rs10456542 TC, N=100, mean ± SD): 0.09 ± 0.05 mg/kg; Analges. % (analgesic interventions %) [29]: 57%; Maximum FLACC [29]: 2 (1-5); Post-Operative morphine (Whites, ABCB1 rs10456542 TT, N=70, mean ± SD): 0.10 ± 0.05 mg/kg; post-operative morphine in patients who needed intervention (average): 0.10 ± 0.05 mg/kg
